Laboratory results published in the supplement of paper PMC10307832.

Tests used:
Experiment in all cases: relative viability (nuclei count vs DMSO), 5 days (fraction); higher = more cells survive
[1] = compound: CCC1=CN=CN=C1N2CCN(CC2)CC3=NC4=C(N3)C=C(C=C4)C(F)(F)F + COc1cc2c(Oc3ccc(NC(=O)C4(C(=O)Nc5ccc(F)cc5)CC4)cc3F)ccnc2cc1OCCCN1CCOCC1 [Foretinib] (partner 0.25 µM)
In short: (§1)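 For relative viability, nuclei counts in treated wells were divided by those in vehicle wells. Lung cancer cell lines had been pin-tool dosed in 1536-well plates the day after seeding and cultured for 5 days, then fixed and stained in one step (final 0.05% Triton X-100, 1% formaldehyde, 1 ug/ml Hoechst) and imaged at 4×. Doses were one drug alone or a fixed anchor-drug dose plus five library-drug doses (not always all listed) in √10 steps, and values are duplicate-plate medians.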

[2] = compound: CCn1c(-c2nonc2N)nc2cnc(Oc3cccc(NC(=O)c4ccc(OCCN5CCOCC5)cc4)c3)cc21 + COc1cc2c(Oc3ccc(NC(=O)C4(C(=O)Nc5ccc(F)cc5)CC4)cc3F)ccnc2cc1OCCCN1CCOCC1 [Foretinib] (partner 0.25 µM)
In short: as §1

[3] = compound: N=C1NC(=O)/C(=C/c2ccc(O)cc2)S1 [Mirin] + CCNC(=O)c1noc(-c2cc(C(C)C)c(O)cc2O)c1-c1ccc(CN2CCOCC2)cc1 [Luminespib] (partner 0.01 µM)
In short: as §1

[4] = compound: N=C1NC(=O)/C(=C/c2ccc(O)cc2)S1 [Mirin] + CC(C)C[C@H](NC(=O)[C@H](Cc1ccccc1)NC(=O)c1cnccn1)B(O)O [Bortezomib] (partner 0.002 µM)
In short: as §1

Cell Line | relative viability ([1]; first compound 0.04 µM) | relative viability ([1]; first compound 0.1265 µM) | relative viability ([1]; first compound 0.4 µM) | relative viability ([1]; first compound 1.265 µM) | relative viability ([1]; first compound 4 µM) | relative viability ([2]; first compound 0.04 µM) | relative viability ([2]; first compound 0.1265 µM) | relative viability ([2]; first compound 0.4 µM) | relative viability ([2]; first compound 1.265 µM) | relative viability ([2]; first compound 4 µM) | relative viability ([3]; first compound 0.25 µM) | relative viability ([3]; first compound 0.7906 µM) | relative viability ([3]; first compound 2.5 µM) | relative viability ([3]; first compound 7.906 µM) | relative viability ([3]; first compound 25 µM) | relative viability ([4]; first compound 0.25 µM) | relative viability ([4]; first compound 0.7906 µM) | relative viability ([4]; first compound 2.5 µM) | relative viability ([4]; first compound 7.906 µM) | relative viability ([4]; first compound 25 µM)
SW 1573 | 0.732 | 0.863 | 0.912 | 0.815 | 0.8 | 1.1 | 0.926 | 0.527 | 0.539 | 0.354 | 0.228 | 0.272 | 0.247 | 0.201 | 0.205 | 1.01 | 1.06 | 1.14 | 0.95 | 0.855
A-427 | 1.03 | 1.11 | 1.03 | 0.959 | 0.534 | 1.12 | 0.947 | 1.14 | 1.02 | 1.21 | 0.756 | 1.01 | 0.905 | 0.89 | 0.952 | 0.97 |  | 1.01 | 1.03 | 1.02
NCI-H441 | 0.96 | 1.07 | 0.938 | 0.884 | 0.993 | 1.12 | 1.04 |  | 0.859 | 0.79 | 0.377 | 0.321 | 0.343 | 0.269 | 0.282 | 0.387 | 0.645 | 0.449 | 0.314 | 0.409
ABC-1 | 1.32 | 1.05 | 1.12 | 1.24 | 0.886 | 0.804 | 1.29 | 1.15 | 0.802 | 0.417 | 0.746 | 0.879 | 0.73 | 0.534 | 0.341 | 0.293 | 0.254 | 0.306 | 0.339 | 0.293
NCI-H2023 | 0.698 | 0.911 | 0.849 | 0.628 | 0.895 | 0.897 | 0.988 | 1.03 | 0.71 | 0.451 | 0.746 | 0.862 | 0.804 | 0.763 | 0.64 | 1.13 | 0.807 | 1 | 1.05 | 0.926
NCI-H647 | 1.29 | 1.12 | 1.21 | 1.13 | 1.41 | 1.27 | 1.09 | 0.913 | 0.668 | 0.715 | 0.115 | 0.11 | 0.17 | 0.241 | 0.09 | 1.24 | 0.909 | 1.04 | 0.816 | 0.444
NCI-H3122 | 0.924 | 0.968 | 0.94 | 0.978 | 0.977 | 1.06 | 0.969 | 0.935 | 0.972 | 0.832 | 0.0805 | 0.0865 | 0.0952 | 0.0621 | 0.0807 | 1.06 | 0.985 | 0.986 | 1.1 | 1.1
LCLC-103H | 0.917 | 0.852 | 0.757 | 0.644 | 0.688 | 0.777 | 0.91 | 0.798 | 0.662 | 0.624 | 0.931 | 1.06 | 0.93 | 1.05 | 1 | 1.12 | 1.07 | 0.959 | 1.23 | 1.12
NCI-H520 | 0.795 | 0.626 | 0.777 | 0.588 | 0.798 | 0.962 | 0.994 | 0.755 | 0.603 | 0.429 | 0.234 | 0.241 | 0.225 | 0.235 | 0.211 | 0.503 | 0.13 | 0.632 | 0.355 | 0.358
NCI-H1755 | 0.895 | 0.86 | 0.844 | 0.743 | 0.88 | 0.907 | 0.957 | 0.916 | 0.619 | 0.645 | 0.396 | 0.519 | 0.497 | 0.407 | 0.358 | 0.951 | 1.03 | 0.979 | 0.873 | 1.11
NCI-H1734 | 0.828 | 0.811 | 0.874 | 0.816 | 0.765 | 0.97 | 0.882 | 0.69 | 0.599 | 0.44 | 0.191 | 0.182 | 0.21 | 0.208 | 0.217 | 0.952 | 0.778 | 0.987 | 0.831 | 0.793
EPLC-272H | 0.787 | 0.787 | 0.688 | 0.653 | 0.639 | 0.829 | 0.766 | 0.753 | 0.74 | 0.716 | 0.176 |  | 0.311 | 0.198 | 0.185 | 0.962 |  | 1.04 | 0.714 | 0.826
NCI-H2228 | 1.09 | 0.848 | 0.647 | 0.746 | 0.801 | 1.28 | 0.946 | 1.03 | 0.744 | 0.731 | 0.144 | 0.166 | 0.159 | 0.129 | 0.114 | 0.983 | 1.04 | 1 | 0.919 | 1.2
